According to publication PMC6981454, “Promising 2,6,9-Trisubstituted Purine Derivatives for Anticancer Compounds: Synthesis, 3D-QSAR, and Preliminary Biological Assays” (International Journal of Molecular Sciences, 2019):
Read-outs that look alike come from different tables or passages of the source. One block for each compound: values may come before it.

Key:
[1] = system: cancer cell lines; details: cited from earlier work
[2] = system: CACO2; assay: MTT cytotoxicity assay, 72 h; format: cell-based, human; details: Homo sapiens, Caco-2, IC50 ± SD
Protocol: Cytotoxicity assays were performed by using the MTT reduction method as described in the literature [23, 37]. Briefly, cancer cell lines were plated in a flat-bottom 96-wells plate at 1 × 10^4 cells per well density. Then, the cells were incubated with synthetized compounds at different concentrations (from 0.1 to 100 µM) in 200 µL of 10% fetal bovine serum-RPMI or EMEM culture medium at 37 °C for 72 h. Then, 10 µL of MTT was added at a final concentration of 0.5 mg/mL, incubated at 37 °C for 4 h, and then solubilized with 10% sodium dodecyl sulphate (SDS) in 0.1 mM HCl and incubated overnight at 37 °C. Formazan formation was measured at 570 nm in a multi-well reader (StatFax 4200).

[3] = system: NCI-H460; assay: MTT cytotoxicity assay, 72 h; format: cell-based, human; details: Homo sapiens, NCI-H460, 72 h, MTT, 72 h, IC50 ± SD; read-out: IC50 NCI-H460
Protocol: (§1) In our study, the human cancer cell lines used were CFAPC- 1 (pancreatic adenocarcinoma); NCI-H460 (large cell lung); HL-60 (acute promyelocytic leukaemia); CACO2 (colorectal adenocarcinoma); HCT-116 (colorectal carcinoma); K562 (chronic myeloid leukaemia); MCF-7 (breast adenocarcinoma); and MRC-5 control cells (normal fibroblasts).
(§2) CFAPC-1, NCI-H460 H1975, HL-60, HCT-116, CACO2, K562, MCF-7, and MCR-5 were grown and maintained in RPMI 1640 and DMEM F12 as appropriate with 10% fetal bovine serum, 100 UI/mL penicillin–streptomycin, and cultured al 37 °C in 5% CO2 humidified atmosphere. Control cultures were treated with dimethyl sulfoxide (1%) alone at the same concentration as in the purine derivatives treatment. Cell viability was determined by trypan blue dye exclusion. Cell numbers were counted in hemocytometer by light microscopy.
(§3) Cytotoxicity assays were performed by using the MTT reduction method as described in the literature. Briefly, cancer cell lines were plated in a flat-bottom 96-wells plate at 1 × 10^4 cells per well density. Then, the cells were incubated with synthetized compounds at different concentrations (from 0.1 to 100 µM) in 200 µL of 10% fetal bovine serum-RPMI or EMEM culture medium at 37 °C for 72 h. Then, 10 µL of MTT was added at a final concentration of 0.5 mg/mL, incubated at 37 °C for 4 h, and then solubilized with 10% sodium dodecyl sulphate (SDS) in 0.1 mM HCl and incubated overnight at 37 °C. Formazan formation was measured at 570 nm in a multi-well reader (StatFax 4200).

[4] = system: CFPAC-1; assay: MTT cytotoxicity assay, 72 h; format: cell-based, human; details: Homo sapiens, CFPAC-1, IC50 ± SD
Protocol: as §1, §2, §3

[5] = system: MCF-7; assay: MTT cytotoxicity assay, 72 h; format: cell-based, human; details: Homo sapiens, MCF7, 72 h, MTT, 72 h, IC50 ± SD
Protocol: as §1, §2, §3

[6] = system: HL-60; assay: MTT cytotoxicity assay, 72 h; format: cell-based, human
Protocol: as §1, §2, §3

[7] = system: K562; assay: MTT cytotoxicity assay, 72 h; format: cell-based, human; details: Homo sapiens, K562, 72 h, MTT, 72 h, IC50 ± SD
Protocol: as §1, §2, §3

[8] = system: HCT-116; assay: MTT cytotoxicity assay, 72 h; format: cell-based, human; details: Homo sapiens, HCT-116, IC50 ± SD
Protocol: as §1, §2, §3

[9] = system: MRC-5; assay: MTT cytotoxicity assay, 72 h, normal control cells; format: cell-based, human; details: Homo sapiens, MRC5, IC50 ± SD, normal fibroblasts
Protocol: as §1, §2, §3

[10] = system: p53; assay: p53-dependent transcriptional activity reporter assay (β-galactosidase) in Arn-8 cells; format: cell-based, human; details: Arn-8 cells, 24 h incubation, Table S3, control compound
Protocol: Table S3. Results of p53 activity of compounds 4a-u and 7a-j.
Compound fold p53 activity […]
p53-dependent transcriptional activity
To measure p53-dependent transcriptional activity, -galactosidase activity was determined in the human melanoma cell line Arn-8, stably transfected with a p53-responsive reporter construct pRGC foslacZ as described before. After 24 h incubation with the inhibitors, the cells were permeabilized with 0.3% Triton X-100 for 15 min, and then 4-methylumbelliferon-ß-D-galactopyranoside was added as a substrate to a final concentration of 80 µM. […]
fluorescence was measured at 355/460 nm (ex/em) with a Fluoroskan Ascent microplate reader […]
Figure S6. Dose-response effect of roscovitine on p53 activity in ARN8 cells (control experiment).
(1 picture or pasted object on this page, not shown here)

[11] = Homo sapiens, HL-60, 72 h, MTT, 72 h, IC50 ± SD, read-out: IC50 HL-60

Compound: OC[C@H]1O[C@@H](n2cnc3c(N4CCN(c5ccc(C(F)(F)F)cc5)CC4)nc(Cl)nc32)[C@H](O)[C@@H]1O [II]
IC50 on some cancer cell lines [1]: sub-micromolar

melting point: 150 to 153 °C
Compound: CCCCCn1cnc2c(-c3ccc(OC(F)(F)F)cc3)nc(N3CCC(c4ccccc4)CC3)nc21 [4t, 9-Pentyl-2-(4-phenylpiperidin-1-yl)-6-(4-(trifluoromethoxy)phenyl)-9H-purine]
IC50 [2]: > 100 µM
IC50 [3]: > 100 µM
IC50 [4]: > 100 µM
IC50 [5]: > 25 µM
IC50 [6, 11]: > 50 µM
IC50 [7]: > 25 µM
IC50 [8]: > 50 µM
IC50 [9]: > 100 µM

Compound: FC(F)(F)c1ccc(N2CCN(c3ncnc4c3ncn4C3CCCC3)CC2)cc1 [I]
IC50 on some cancer cell lines [1]: sub-micromolar

Compound: CC[C@H](CO)Nc1nc(NCc2ccccc2)c2ncn(C(C)C)c2n1 [Roscovitine, reference compound]
fold p53 activity [10]: 33.9

melting point: 85 to 87 °C
Compound: CCn1cnc2c(-c3ccc(OC(F)(F)F)cc3)nc(NC3CCCC3)nc21 [4a, N-cyclopentyl-9-ethyl-6-(4-(trifluoromethoxy)phenyl)-9H-purin-2-amine]
IC50 [2]: > 100 µM
IC50 [3]: > 100 µM
IC50 [4]: > 100 µM
IC50 [5]: > 25 µM
IC50 [6, 11]: 38 ± 3 µM
IC50 [7]: > 25 µM
IC50 [8]: > 50 µM
IC50 [9]: > 100 µM

melting point: 50 to 53 °C
Compound: CCCCCn1cnc2c(-c3ccc(OC(F)(F)F)cc3)nc(NC3CCCCCC3)nc21 [4j, N-cycloheptyl-9-pentyl-6-(4-(trifluoromethoxy)phenyl)-9H-purin-2-amine]
IC50 [2]: > 100 µM
IC50 [3]: > 100 µM
IC50 [4]: > 100 µM
IC50 [5]: > 25 µM
IC50 [6, 11]: < 6 µM
IC50 ([6]; Homo sapiens, HL-60, -logIC50 in molar concentration, Table S1, read-out: Experimental pIC50 (HL-60) (converted)): 6 µM
Selectivity Index (SI) MRC-5/HL-60 ([6]; IC50 in MRC-5 / IC50 in HL-60): > 16.7
IC50 ([6]; MTT, 72 h, IC50 ± SD, read-out: IC50 HL-60): 6 ± 0.8 µM
IC50 [7]: > 25 µM
IC50 [8]: > 50 µM
IC50 [9]: > 100 µM
